Data from patent US11970523B2 (priority 2018, dated 2024).

Test: Weight gain slowing test
Assay type: in vivo, Male C57bl/6 mice
Conditions: high-fat fed mice, 50 nmol/kg every day for 56 days
Protocol: (§1) Male C57bl/6 mice were fed with high-fat feed for 4 weeks. The mice with body weights greater than 30 g were selected for the test, and were randomly divided into 26 groups, 8 mice per group. […] Fasting body weights of each group of mice on Day 1 and Day 56 were tested, and the average body weight change of each group of mice was examined.
as §1, with “7” for “26”
as §1, with “8” for “26”

Oxyntomodulin [OXM, reference compound]
fasting body weight, Day 1 (Table 3, in g (unit assumed)): 32.5 ± 0.7
fasting body weight, Day 56 (Table 3, in g (unit assumed)): 40.3 ± 1.3
fasting body weight, Day 1 (Table 5, in g (unit assumed)): 31.0 ± 0.8
fasting body weight, Day 56 (Table 5, in g (unit assumed)): 41.0 ± 0.7
fasting body weight, Day 1 (Table 7, in g (unit assumed)): 30.5 ± 0.6
fasting body weight, Day 56 (Table 7, in g (unit assumed)): 39.6 ± 1.3
fasting body weight, Day 1 (Table 9, in g (unit assumed)): 31.9 ± 0.6
fasting body weight, Day 56 (Table 9, in g (unit assumed)): 42.1 ± 1.3
fasting body weight, Day 56 (Table 11): 43.3±
fasting body weight, Day 1 (Table 11, in g (unit assumed)): 32.7
